Results reported in patent US20070191935A1, “Drug Delivery Stent with Extended In Vivo Drug Release” (Conor Medsystems, Inc., priority 2006, published 2007).

Assays:
[1] = system: in stent neointimal proliferation; assay: clinical trials, in stent neointimal proliferation; conditions: in vivo release greater than 60 days from stent
[2] = in vivo paclitaxel release from stent (explanted stents, total drug load by HPLC)
Text: The measurement of in vivo paclitaxel release from a stent can be performed according to the following Example.
Stents are implanted in a porcine model and explanted at selected time points by removing the entire artery section. The expanded stents are labeled and frozen. The tissue is removed from the stent by slicing the tissue on the outside of the stent lengthwise, inverting the tissue, and removing the tissue by cutting and turning the tissue inside out. The stent may still be covered by a tough elastic membrane which is then removed by splitting the membrane and peeling it off the stent. For longer time points, there will also be a tub of tissue inside the stent. This tube is separated from the stent with tweezers, turned inside out and pulled out of the stent.
The elution rates of drug from the examples are determined in a standard sink condition experiment.
The total drug load (TDL) of paclitaxel from a stent is determined by extracting all the polymer and drug from the stent in a solvent such as dimethyl sulfoxide (DMSO) or acetonitrile. The amount of paclitaxel in a solution sample is determined by High Pressure Liquid Chromatography (HPLC).
The in vivo release kinetic (RK) for paclitaxel from a stent is determined by running the TDL for multiple explanted time points. The TDL for the explanted samples is subtracted from the TDL of an unimplanted stent to determine the amount of paclitaxel released at each of the explanted time points.

Q: Which “in stent neointimal proliferation, longer in vivo release vs more rapid release of the same dosage” value [1] does the source give for `CC(=O)O[C@H]1C(=O)[C@@]2(C)[C@H]([C@H](OC(=O)c3ccccc3)[C@]3(O)C[C@H](OC(=O)[C@H](O)[C@@H](NC(=O)c4ccccc4)c4ccccc4)C(C)=C1C3(C)C)[C@]1(OC(C)=O)CO[C@@H]1C[C@@H]2O` [paclitaxel] here?
A: lower in stent neointimal proliferation than the more rapid release of the same dosage

Q: And the “in vivo release of the paclitaxel on the stent in the first 30 days after implantation” value ([2]; first 30 days after implantation)?
A: not more than 40%

Q: What about the “complete release of the entire dose of paclitaxel loaded on the stent” value ([2]; in vivo) of the same compound?
A: ≤ 8 months

Q: What about the “time until all the drug loaded on the stent is released” value ([2]; in vivo, FIG. 4) of the same compound?
A: 90 to 180 days

Q: And the “release rate after day one” value ([2]; in vivo, after day one, continues for up to about 90 days)?
A: under 0.1 μg per day
